From US20260325655A1, “DECREASING THE INTRINSICALLY DISORDERED PROTEIN ALPHA-SYNUCLEIN’S LEVELS BY TARGETING ITS STRUCTURED MRNA WITH A RIBONUCLEASE TARGETING CHIMERA” (University of Florida Research Foundation, Incorporated, priority 2023, published 2026)

Key:
SNCA IRE = experiment: MST binding affinity for SNCA IRE (A bulge model RNA); conditions: microscale thermophoresis; Cy5-labeled RNA
Procedure: Binding Affinity Measurements: Microscale Thermophoresis (MST). Binding affinity measurements were performed on a Monolith NT.115 MST system (NanoTemper Technologies) with Cy5-labeled oligonucleotides. Briefly, Cy5-labeled RNA (5 nM) was prepared in 1× Folding Buffer and folded by heating at 60° C. for 5 min and then slowly cooling to room temperature. After cooling, Tween-20 was added to a final concentration of 0.1% (v/v). Compound solutions were prepared separately in 30 μL of 1× Assay Buffer at a final concentration of 5 μM (1% (v/v) DMSO), followed by 1:1 serial dilutions in 1× Assay Buffer. RNA and compound solutions were then mixed 1:1 by volume.
Samples were incubated for 20 min at room temperature and then loaded into premium capillaries (NanoTemper Technologies, Cat #MO-K025). The following parameters were used for MST measurement: 5-20% LED power (adjusted to keep fluorescence intensity between 8000 and 18000), 80% MST power, Laser-On time=30 s, and Laser-Off time=5 s. The resulting data were analyzed by calculating the change in thermophoresis as a function of compound concentration and fitted by Equation (3) in MST analysis software (NanoTemper Technologies) to yield the dissociation constant (Kd):
where F is the concentration of fluorescently labeled RNA; unbound and bound refer to the thermophoresis signal at completely unbound and bound state of RNA, respectively; c is the concentration of the compound; f (c) is the thermophoresis signal at compound concentration of c; Kd is the dissociation constant.

α-synuclein = α-synuclein protein in iPSC-induced dopaminergic neurons; type: cell-based, human
Procedure: Dopamine neuron induction. For dopamine neuronal induction,^15,16 the dual-SMAD inhibition method^17 was used for floor plate (FP)-based midbrain dopamine (DA) neuron induction with modifications. Prior to differentiation, Matrigel matrix (BD) was thawed at 4° C. overnight or on ice until it is dissolved. Matrigel coated 6-well plates were prepared according to manufacturer's instructions and incubated at 37° C. for at least 1 h before use. iPSCs were dissociated with Accutase (STEMCELL Technologies) and plated (3.5×10^5-4×10^5 cells per cm^2) into a new Matrigel coated plate and grown in mTeSR medium (STEMCELL Technologies) with StemBeads FGF2 (StemCultures) and ROCK inhibitor Y27632 (5 μM, Tocris). After 24 to 48 h, when the cells reached 100% confluency, the differentiation protocol was initiated by feeding the cells with DMEM containing 15% KnockOut Serum Replacement (KSR, Gibco), 2 mM L-glutamine (L-Glut) and 10 μM β-mercaptoethanol for 11 days. […]
ELISA (Enzyme-Linked Immunosorbent Assay). […] After compound treatment, total protein was extracted and quantified as described in Western blotting. The concentration of α-synuclein protein was measured by using Human Alpha-synuclein ELISA Kit (Abcam, ab260052) per the manufacturer's recommendations.

`CCOC(=O)C1=C(Nc2ccccc2)S/C(=C\c2ccc(OCCOCCOCCOCCNC(=O)CCCOc3ccc(-n4c(SCC(=O)Nc5ccc6cn[nH]c6c5)nnc4-c4ccncc4)cc3)c(O)c2)C1=O` [Syn-RiboTAC] was tested, and the Kd (SNCA IRE) was 103 ± 10 nM and the “decrease of α-synuclein protein levels in dopaminergic neurons” value (α-synuclein; 2 μM, PD patient-derived (SNCA triplication)) was ~ 50%.
With `O=C(CSc1nnc(-c2ccncc2)n1-c1ccc(Br)cc1)Nc1ccc2cn[nH]c2c1` [Synucleozid-2.0] the Kd (SNCA IRE) was 66 ± 4 nM and the “α-synuclein protein levels in dopaminergic neurons (in words)” value (α-synuclein; ELISA, FIG. 3D) was “decreased α-synuclein protein levels”.
